Assay results published in US10077232B2, “Cyclic cationic lipids and methods of use” (ARBUTUS BIOPHARMA CORPORATION, priority 2010, dated 2018).

Experiment: TNS assay, apparent pKa of cationic lipids in 1:57 SNALP
Conditions: not given
`CCCCCC1CC1CC1CC1CC1CC1CCCCCC(CCCCCC1CC1CC1CC1CC1CC1CCCCC)OC(=O)CCCN(C)C` (stereo not drawn) [CP-γ-LenMC3] gave a pKa of about 6. `CCCCC/C=C\C/C=C\C/C=C\CCCCCC(CCCCC/C=C\C/C=C\C/C=C\CCCCC)OC(=O)CCCN(C)C` [g-Len-MC3] gave a pKa of about 6.1. For `CCCCCC1CC1CC1CC1CCCCCCCCOCC(CN(C)C)OCCCCCCCCC1CC1CC1CC1CCCCC` (stereo not drawn) [CP-DLinDMA], the pKa was about 5.8. Work on `CCCCCC1CC1CC1CC1CC1CC1CCCCCOCC(CN(C)C)OCCCCCC1CC1CC1CC1CC1CC1CCCCC` (stereo not drawn) [CP-γ-DLenDMA] yielded a pKa of about 5.8. With `CCC1CC1CC1CC1CC1CC1CCCCCCCCC(CCCCCCCCC1CC1CC1CC1CC1CC1CC)OC(=O)CCCN(C)C` (stereo not drawn) [CP-LenMC3] the pKa was about 6.1. For `CCC1CC1CC1CC1CC1CC1CCCCCCCCOCC(CN(C)C)OCCCCCCCCC1CC1CC1CC1CC1CC1CC` (stereo not drawn) [CP-DLenDMA], the pKa was about 5.85. `CCCCCCCCC1CC1CCCCCCCCOCC(CN(C)C)OCCCCCCCCC1CC1CCCCCCCC` (stereo not drawn) [CP-DODMA] gave a pKa of about 5.8. With `CCCCCCCCCCCC1CC1CCCCCOCC(CN(C)C)OCCCCCC1CC1CCCCCCCCCCC` (stereo not drawn) [CP-DPetroDMA] the pKa was about 5.95.

Same assay, conditions: 1:57 SNALP with encapsulated ApoB siRNA; pH where TNS fluorescence equals 50% of total
For `CCCCC/C=C\C/C=C\CCCCCCCCOCC(COCC(CCN(C)C)OCCCCCCCC/C=C\C/C=C\CCCCC)OCCCCCCCC/C=C\C/C=C\CCCCC` (stereo not drawn) [Compound C2-TLinDMA, reference compound], the “pKa (apparent, surface)” value was about 5.85.
